Test results from patent US20230116399A1, “Tumor Homing Statin Derivatives” (Da Zen Theranostics, Inc., priority 2019, published 2023).

Tests used:
EZ-resistant C4-2B (PC) = test: MTT cell viability, EZ-resistant C4-2B (MDVR); format: cell-based; settings: Homo sapiens, 48 h / 24 hours, relative IC50
Experimental: Cell culture: In the following examples, unless otherwise specified, all cell lines are purchased from American Type Culture Collection and cultured in American Type Culture Collection (ATCC)-recommended media, with fetal bovine serum (FBS) to a final concentration of 10% and 1×penicillin/streptomycin at 37° C. with 5% CO2 in a cell culture incubator, unless otherwise specified. Unless otherwise specified, culture is 2D. Where culture is 3D, low attachment plates are used, with the same media. C4-2B (parental cell line and drug-resistant cells derived therefrom) are cultured in RPMI-1640 with 10% FBS. MDVR cells (an Enzalutamide-resistant variety of C4-2B prostate cancer cells formed as described in Example 4 below) are cultured as indicated for the parental C4-2B cells. 22RV1 Prostate Cancer (PC) cells (ATCC® CRL-2505™, a human prostate carcinoma cell line of epithelial morphology) are cultured in RPMI-1640 with 10% FBS. A549 cells (ATCC® CCL-185™, a human lung carcinoma cell line of epithelial morphology) are cultured in F-12K medium with 10% FBS. A549/DDP cells (Cells were described in DOI: 10.3892/mmr.2014.2163 and in doi: 10.7150/jca.19426; cisplatin resistant cells may be established from exposing parental A549 cells to cisplatin for an extended time). MDR A549/cisplatin lung adenocarcinoma cell line, drug resistant) are cultured in F-12K medium with 10% FBS. […]

22Rv1 cancer cells = test: Western blot for polyubiquitinated proteins; format: cell-based, human; settings: anti-ubiquitin antibody
Experimental: Example 3D: Proteins are denatured and separated as described in example 3C; on the membrane a western blot is performed using an antibody that targets ubiquitin for detection of polyubiquitinated proteins; the probes include a molecular weight marker (“Marker”), DMSO (vehicle which serves as a control), an unconjugated statin (Simvastatin), an unconjugated dye (DZ1), and the THSD (here ALSD of formula FIId, “DZ2a”, compound 7). […] Thus it is shown that THSD prevent the removal of polyubiquitinated proteins by cancer cells through altered autophagic processes which involve defective lysosomal functions.

[1] = system: RhoA/B in H-1975 human lung cancer tumors; test: RhoA/B membrane staining of tumor tissue, H-1975 mouse model; format: in vivo, mice; settings: 5 mg/kg
Experimental: RhoA/RhoB membrane staining of tumor tissue of a H-1975 human lung cancer cell mouse model is performed as described below, and the tumor-bearing mice are treated with a THSD (here an ALSD of formula FIId, “DZ2a”, compound 7) in comparison to the corresponding unconjugated dye (“DZ1”) and to Gefinitib (an EGFR inhibitor drug used for treatment of certain breast, lung and other cancers).
H-1975 cells, a cell model for human lung cancer that is resistant to Gefitinib (an EGFR inhibitor drug used for treatment of certain breast, lung and other cancers) are cultured as described above and injected subcutaneously into mice to develop tumors. The mice and the tumors that are formed are systemically exposed to an ALSD (here of formula FIId, “DZ2a”, compound 7) by intravenous injection. The tumor-bearing mice are treated with either Gefitinib (20 mg/kg), or with an ALSD (here of formula FIId, “DZ2a”, compound 7, 5 mg/kg), an unconjugated dye of formula III (“DZ1”, 5 mg/kg) or a combination of the ALSD with Gefitinib.
For immunostaining of tumor tissue, the animals are sacrificed by prescribed and approved euthanasia techniques. Tumor tissue (maximum thickness 3 mm) is sliced, formalin fixated, embedded into paraffin blocks which are sectioned and processed into paraffin section slides. […]

Structure (SMILES)	IC50 (EZ-resistant C4-2B (PC)) [µM]	ubiquitin signal (polyubiquitinated proteins) (22Rv1 cancer cells)	RhoA/B staining of tumor cell membranes [1]
CCC(C)(C)C(=O)O[C@H]1C[C@@H](C)C=C2C=C[C@H](C)[C@H](CC[C@@H]3C[C@@H](O)CC(=O)O3)[C@H]21 [Simvastatin]	25.5		
CC1(C)C(/C=C/C2=C(Cl)C(=C/C=C3/N(CCCCCC(=O)O)c4ccccc4C3(C)C)/CCC2)=[N+](CCCCS(=O)(=O)[O-])c2ccccc21 [DZ1]		much weaker signals and less of a smear	staining persists in the membranes
